Test results from article PMC9774446, “Antifungal and Anti-Inflammatory Activities of PS1-2 Peptide against Fluconazole-Resistant Candida albicans” (Antibiotics, 2022).
In brackets after ≈: the same amount, converted by molar mass. Like-named read-outs stand apart in the source and are kept apart here. No end group written: not given here.

Columns and labels:
[1] = cited from earlier work
Procedure: Alterations in the killing kinetic pattern under low salt (SP) and high salt (PBS) conditions can predict the interaction and mode of action of peptides on yeast. Because propidium (PI) dye can stain the live cells only temporarily, it will be released ... || To investigate the proteolytic stability of the peptides, the peptide solutions were pre-treated with trypsin for 40 min and added to C. albicans cells. After 24 h of incubation, cells were spread on agar plates (Figure 4).

[2] = system: Candida albicans CCARM 14007 (fluconazole-resistant strain); assay: microbe, parasite or virus in culture; assay type: cell-based
Description: […] The lowest drug concentration at which no more than one colony was visible on the agar plate, was defined as a minimum fungicidal concentration (MFC).

[3] = system: C. albicans CCARM 14007-infected mouse lung; assay type: in vivo, BALB/c mice
Description: Animal study was approved by the Institutional Animal Care and Use Committee (IACUC) in Sunchon National University, South Korea (SCNU IACUC-2019-10). […] The mice anesthetized by inhalation of isoflurane (5%: induction, 2%: maintenance) in pure oxygen were intratracheally instilled with C. albicans cells. One hour after exposure, each peptide sample was intratracheally administered at the indicated dose, and the mice were monitored for signs of morbidity for 6 days. The lungs of mice euthanized by CO2 inhalation were excised and fixed in 4% paraformaldehyde. The fixed tissues were dehydrated using a series of ethanol solutions (50–100%) and embedded in paraffin. Paraffin-embedded tissues were sectioned at a thickness of 5 µm (Leica microtome, Deerfield, IL, USA), and the histopathology of the lung tissues was performed using alcian blue without/with eosin, and hematoxylin and eosin (H&E) staining.
TNF-α and NO production levels in blood collected from mouse hearts were determined using mouse anti-TNF-α microplate ELISA kit (R&D Systems, Minneapolis, MN, USA) and Griess reagent kit (Invitrogen, Carlsbad, CA, USA), respectively, followed by the manufacturer’s instructions.

C. albicans CCARM 14007 = settings: CCARM 14007, pH 7.2
Procedure: C. albicans CCARM 14007 cells grown to the mid-log phase at 28 °C were suspended in 10 mM sodium phosphate (pH 7.2) buffer or PBS (pH 7.2) buffer with 10% YPD media at a density of 5 × 10^5 cells/mL. […] The cells were analyzed by fluorescence-activated cell sorting (FACS) system (Attune NxT acoustic focusing cytometer).

C. albicans KCTC 7270 = assay: Drug-resistance assay (MFC over six passages); assay type: cell-based; settings: Candida albicans
Procedure: To investigate the induction of drug resistance, C. albicans KCTC 7270 cells were prepared as for antifungal assay described above, at concentrations ranging from 1 to 128 μM. After 24 h incubation, MFCs were determined by the above method, and the surviving cells at half MFCs of each sample were treated with the diluted samples, repeating the process six times.

[4] = system: RAW 264.7 cells stimulated with C. albicans CCARM 14007; assay: Anti-inflammatory assay in co-culture of RAW 264.7 and C. albicans; assay type: cell-based, murine; settings: fluconazole 128 µM or PS1-2 32 µM, 24 h
Procedure: RAW 264.7 cells were cultured in DMEM supplemented with 10% FBS, 1% penicillin/streptomycin, and GlutaMax at 5% CO2 at 37 °C. The RAW 264.7 cells (2 × 10^5 cells/mL) suspended with RPMI-1640 medium were seeded into 12-well plates and incubated for 24 h. […] After 24 h incubation, cells were washed and harvested in PBS. A total of 1000 µL of blocking solution (5% bovine serum albumin with PBS) was added to each sample, incubated at 25 °C for 30 min, removed by centrifugation at 1000× g, and then incubated with the primary antibody (anti-TLR2, or anti-TNF-α; Abcam, Cambridge, UK, 1:200 dilution) for 1 h. The cells were washed with PBS and incubated with a secondary antibody (fluorescein isothiocyanate-conjugated goat anti-mouse IgG, 1:500 dilution; Santa Cruz Biotechnology) for 1 h. Cells expressing TLR2 were measured using an Attune NxT acoustic focusing cytometer. TNF-α expression was visualized using a confocal laser-scanning microscope (CLSM, A1R HD 25, Nikon, Tokyo, Japan).

KWLKKWLKKWLK-NH2 [PS1-6]
toxicity / cytotoxicity (in words) [1]: significant toxicity | MFC ([2]; CCARM 14007, 24 h, pH 6): 16 µM | MFC ([2]; CCARM 14007, 24 h, pH 7.2): 16 µM

KWYKKWYKKWYK-NH2 [PS1-2]
toxicity / cytotoxicity (in words) [1]: significantly lower than that of PS1-6 | lung histology of non-infected mice (in words) ([3]; mouse, in vivo, 2 mg/kg): did not induce inflammation | cells killed (PI-positive cells) (C. albicans CCARM 14007): 87% | MFC ([2]; CCARM 14007, 24 h, pH 6): 32 µM | MFC ([2]; CCARM 14007, 24 h, pH 7.2): 32 µM

RWYRRWYRRWYR-NH2 [PS1-5]
MFC ([2]; CCARM 14007, 24 h, pH 6): 16 µM | MFC ([2]; CCARM 14007, 24 h, pH 7.2): 32 µM

OC(Cn1cncn1)(Cn1cncn1)c1ccc(F)cc1F [Fluconazole, fluconazole]
inhibition of TNF-α secretion in whole blood serum ([3]; C. albicans-infected mice, 2 mg/kg intratracheal 1 h after infection, 6 days, ELISA): approximately 65% | NO production in whole blood serum (in words) ([3]; C. albicans-infected mice, 2 mg/kg intratracheal 1 h after infection, 6 days, Griess reagent): did not inhibit NO production | lung histology of infected mice (in words) ([3]; C. albicans-infected mice, 2 mg/kg intratracheal, H&E and alcian blue staining): an increase in the release of mucins | MFC (C. albicans KCTC 7270; KCTC7270, read-out: MFC after six passages, 28 °C, surviving cells at half MFC re-treated each passage): 2050 µM (≈ 627 µg/mL) | MFC (C. albicans KCTC 7270; KCTC7270, read-out: MFC after six passages, 37 °C, surviving cells at half MFC re-treated each passage): 4100 µM (≈ 1250 µg/mL) | MFC (C. albicans KCTC 7270; KCTC7270, read-out: MFC at first passage, 28 °C, drug-sensitive C. albicans KCTC 7270): 128 µM (≈ 39.2 µg/mL) | MFC (C. albicans KCTC 7270; KCTC7270, read-out: MFC at first passage, 37 °C, drug-sensitive C. albicans KCTC 7270): 128 µM (≈ 39.2 µg/mL) | MFC ([2]; 28 °C, 6 mM CaCl2 (pH 5.5), 24 h): >128 µM | MFC ([2]; 28 °C, 6 mM MgCl2 (pH 5.5), 24 h): >128 µM | MFC ([2]; 28 °C, 24 mM KCl (pH 5.5), 24 h): >128 µM | MFC ([2]; 28 °C, pH 5.5, 10 mM sodium phosphate buffer containing 10% media, 24 h): >128 µM | MFC ([2]; 28 °C, pH 6.0, 10 mM sodium phosphate buffer containing 10% media, 24 h): >128 µM | MFC ([2]; 28 °C, pH 7.2, 10 mM sodium phosphate buffer containing 10% media, 24 h): >128 µM | MFC ([2]; 37 °C, 6 mM CaCl2 (pH 5.5), 24 h): >128 µM | MFC ([2]; 37 °C, 6 mM MgCl2 (pH 5.5), 24 h): >128 µM | MFC ([2]; 37 °C, 24 mM KCl (pH 5.5), 24 h): >128 µM | MFC ([2]; 37 °C, 150 mM NaCl (pH 5.5), 24 h): >128 µM | MFC ([2]; 37 °C, pH 5.5, 10 mM sodium phosphate buffer containing 10% media, 24 h): >128 µM | MFC ([2]; Candida albicans, CCARM14007, 24 h, pH 5.5): > 128 µM | MFC ([2]; Candida albicans, CCARM14007, 24 h, pH 6): > 128 µM | MFC ([2]; Candida albicans, CCARM14007, 24 h, pH 7.2): > 128 µM | TNF-α expression (in words) ([4]; CLSM): Overexpression of TNF-α | macrophage morphology (in words) ([4]; with C. albicans): Lamellipodia extension and spreading of cells
